# Assay results reported in BindingDB's records for doi:10.1111/j.1747-0285.2007.00590.x (2007).
# Key:
# [1] = target: T1, Hyaluronidase-1 (Homo sapiens, UniProt Q12794); assay: Morgan-Elson Assay; conditions: pH 3.5; 37 °C
# T1 sequence (Q12794 whole entry): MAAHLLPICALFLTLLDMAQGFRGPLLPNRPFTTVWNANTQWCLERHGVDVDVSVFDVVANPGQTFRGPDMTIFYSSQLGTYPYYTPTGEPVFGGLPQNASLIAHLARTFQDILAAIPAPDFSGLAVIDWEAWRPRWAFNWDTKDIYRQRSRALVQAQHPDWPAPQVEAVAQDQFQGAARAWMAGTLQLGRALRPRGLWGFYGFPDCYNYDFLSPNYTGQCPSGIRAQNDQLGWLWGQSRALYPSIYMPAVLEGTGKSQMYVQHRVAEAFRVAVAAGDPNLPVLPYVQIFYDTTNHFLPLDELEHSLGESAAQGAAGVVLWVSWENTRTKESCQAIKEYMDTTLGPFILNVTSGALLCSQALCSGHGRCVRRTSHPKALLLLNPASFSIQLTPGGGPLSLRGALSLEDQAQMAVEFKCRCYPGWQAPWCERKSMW
# Excerpt: Morgan-elson assay were used to test inhibitors at pH of 3.5.
# [2] = target: T1, Hyaluronidase-1; assay: Stains-all Assay; conditions: pH 7; 37 °C
# Excerpt: Stains-all assay were used to test inhibitors at pH of 7.
SMILES,IC50 [1] [µM],IC50 [2] [µM]
"O=C(NCc1ccccc1)c1cc2ccccc2n1Cc1ccccc1 [N-Substituted indole-2- and 3-carboxamide derivative, 1]",78.2,40.3
"O=C(NCc1ccc(Cl)cc1)c1cc2ccccc2n1Cc1ccccc1 [N-Substituted indole-2- and 3-carboxamide derivative, 2]",64.3,33.2
"O=C(NCc1ccc(F)cc1)c1cc2ccccc2n1Cc1ccccc1 [N-Substituted indole-2- and 3-carboxamide derivative, 3]",–,27.2
"O=C(NCc1ccccc1)c1cc2ccccc2n1Cc1ccc(F)cc1 [N-Substituted indole-2- and 3-carboxamide derivative, 6]",–,41.1
"O=C(NCc1ccc(Cl)cc1)c1cc2ccccc2n1Cc1ccc(F)cc1 [N-Substituted indole-2- and 3-carboxamide derivative, 7]",–,33
"O=C(NCc1ccc(F)cc1)c1cc2ccccc2n1Cc1ccc(F)cc1 [N-Substituted indole-2- and 3-carboxamide derivative, 8]",–,29.9
"O=C(NCc1ccccc1)c1cn(Cc2ccc(F)cc2)c2ccccc12 [N-Substituted indole-2- and 3-carboxamide derivative, 16]",61.6,33
"O=C(NCc1ccc(Cl)cc1)c1cn(Cc2ccc(F)cc2)c2ccccc12 [N-Substituted indole-2- and 3-carboxamide derivative, 17]",72.9,33.7
"O=C(NCc1ccc(F)cc1)c1cn(Cc2ccc(F)cc2)c2ccccc12 [N-Substituted indole-2- and 3-carboxamide derivative, 18]",56.7,25.7
